Test results: PubChem BioAssay AID1918958 (Molecular Pharmacology Branch, DTP, NCI, 2023)
Several values for one entry are separate records, joined by “and”; a condition that tells them apart may be missing. Identical values can stand only once.

Test system: NCI-H196 complex spheroid viability
Assay: Anticancer human tumor NCI-H196 cell line growth inhibition [LSD1];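 note: spheroids exposed to agents for 7 days before readout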;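 for viability, T/C: 100% = DMSO vehicle control viability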
Details: for viability, T/C: stronger effect = lower value
Summary of the method: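 Complex spheroids of tumor cells with HUVEC and human MSCs, exposed to iadademstat combined with other agents. Each agent tested in half-log steps from near clinical Cmax (else 10 microM top), DMSO ≤0.25%.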

[1] = curve of first compound, second compound 0.1 µM
[2] = curve of first compound, second compound 0.316 µM
[3] = curve of first compound, second compound 1 µM
[4] = curve of first compound, second compound 3.16 µM
[5] = curve of first compound, second compound 10 µM
[6] = second compound 0.1 µM, first compound 0.000949 µM
[7] = second compound 0.1 µM, first compound 0.003 µM
[8] = second compound 0.1 µM, first compound 0.00949 µM
[9] = second compound 0.1 µM, first compound 0.03 µM
[10] = second compound 0.1 µM, first compound 0.0949 µM
[11] = second compound 0.1 µM, first compound 0.3 µM
[12] = second compound 0.316 µM, first compound 0.000949 µM
[13] = second compound 0.316 µM, first compound 0.003 µM
[14] = second compound 0.316 µM, first compound 0.00949 µM
[15] = second compound 0.316 µM, first compound 0.03 µM
[16] = second compound 0.316 µM, first compound 0.0949 µM
[17] = second compound 0.316 µM, first compound 0.3 µM
[18] = second compound 1 µM, first compound 0.000949 µM
[19] = second compound 1 µM, first compound 0.003 µM
[20] = second compound 1 µM, first compound 0.00949 µM
[21] = second compound 1 µM, first compound 0.03 µM
[22] = second compound 1 µM, first compound 0.0949 µM
[23] = second compound 1 µM, first compound 0.3 µM
[24] = second compound 3.16 µM, first compound 0.000949 µM
[25] = second compound 3.16 µM, first compound 0.003 µM
[26] = second compound 3.16 µM, first compound 0.00949 µM
[27] = second compound 3.16 µM, first compound 0.03 µM
[28] = second compound 3.16 µM, first compound 0.0949 µM
[29] = second compound 3.16 µM, first compound 0.3 µM
[30] = second compound 10 µM, first compound 0.000949 µM
[31] = second compound 10 µM, first compound 0.003 µM
[32] = second compound 10 µM, first compound 0.00949 µM
[33] = second compound 10 µM, first compound 0.03 µM
[34] = second compound 10 µM, first compound 0.0949 µM
[35] = second compound 10 µM, first compound 0.3 µM
[36] = second compound 0.1 µM, first compound 0.000316 µM
[37] = second compound 0.1 µM, first compound 0.001 µM
[38] = second compound 0.1 µM, first compound 0.00316 µM
[39] = second compound 0.1 µM, first compound 0.01 µM
[40] = second compound 0.1 µM, first compound 0.0316 µM
[41] = second compound 0.1 µM, first compound 0.1 µM
[42] = second compound 0.316 µM, first compound 0.000316 µM
[43] = second compound 0.316 µM, first compound 0.001 µM
[44] = second compound 0.316 µM, first compound 0.00316 µM
[45] = second compound 0.316 µM, first compound 0.01 µM
[46] = second compound 0.316 µM, first compound 0.0316 µM
[47] = second compound 0.316 µM, first compound 0.1 µM
[48] = second compound 1 µM, first compound 0.000316 µM
[49] = second compound 1 µM, first compound 0.001 µM
[50] = second compound 1 µM, first compound 0.00316 µM
[51] = second compound 1 µM, first compound 0.01 µM
[52] = second compound 1 µM, first compound 0.0316 µM
[53] = second compound 1 µM, first compound 0.1 µM
[54] = second compound 3.16 µM, first compound 0.000316 µM
[55] = second compound 3.16 µM, first compound 0.001 µM
[56] = second compound 3.16 µM, first compound 0.00316 µM
[57] = second compound 3.16 µM, first compound 0.01 µM
[58] = second compound 3.16 µM, first compound 0.0316 µM
[59] = second compound 3.16 µM, first compound 0.1 µM
[60] = second compound 10 µM, first compound 0.000316 µM
[61] = second compound 10 µM, first compound 0.001 µM
[62] = second compound 10 µM, first compound 0.00316 µM
[63] = second compound 10 µM, first compound 0.01 µM
[64] = second compound 10 µM, first compound 0.0316 µM
[65] = second compound 10 µM, first compound 0.1 µM

Work on `CCc1c2c(nc3ccc(O)cc13)-c1cc3c(c(=O)n1C2)COC(=O)[C@]3(O)CC` + NC1CCC(NC2CC2c2ccccc2)CC1 yielded an IC50 [1] of 10 nM, an IC50 [2] of 9.56 nM and an IC50 [3] of 11 nM. The IC50 [4] was 10.1 nM, the IC50 [5] was 11.4 nM and the viability, T/C [6] was 113%. It also gave a viability, T/C [7] of 104%, a viability, T/C [8] of 52.8% and a viability, T/C [9] of 3.31%. It also gave a viability, T/C [10] of 0.73%, a viability, T/C [11] of 1.14% and a viability, T/C [12] of 123%. The viability, T/C [13] was 104%, the viability, T/C [14] was 52.5% and the viability, T/C [15] was 3.77%. For the same molecule, the viability, T/C [16] was 1.18%, the viability, T/C [17] was 0.82% and the viability, T/C [18] was 120%. It also gave a viability, T/C [19] of 111%, a viability, T/C [20] of 57.1% and a viability, T/C [21] of 2.51%. For the same molecule, the viability, T/C [22] was 0.62%, the viability, T/C [23] was 0.86% and the viability, T/C [24] was 109%. For the same molecule, the viability, T/C [25] was 91.2%, the viability, T/C [26] was 55.3% and the viability, T/C [27] was 2%. The viability, T/C [28] was 0.56%, the viability, T/C [29] was 1.03% and the viability, T/C [30] was 113%. For the same molecule, the viability, T/C [31] was 98.7%, the viability, T/C [32] was 60.1% and the viability, T/C [33] was 3.63%. The viability, T/C [34] was 0.8% and the viability, T/C [35] was 0.85%.
Work on `CC[C@@]1(O)C(=O)OCc2c1cc1n(c2=O)Cc2cc3c(CN(C)C)c(O)ccc3nc2-1` + NC1CC1c1ccc(-c2cccc(O)c2)cc1 yielded an IC50 [1] of over 100 nM, an IC50 [2] of over 100 nM and an IC50 [3] of over 100 nM. The IC50 [4] was over 100 nM, the IC50 [5] was over 100 nM and the viability, T/C [36] was 95.1%. The viability, T/C [37] was 101%, the viability, T/C [38] was 115% and the viability, T/C [39] was 105%. The viability, T/C [40] was 95.7%, the viability, T/C [41] was 99.5% and the viability, T/C [42] was 97.3%. The viability, T/C [43] was 104%, the viability, T/C [44] was 102% and the viability, T/C [45] was 109%. For the same molecule, the viability, T/C [46] was 109%, the viability, T/C [47] was 95.9% and the viability, T/C [48] was 92.4%. It also gave a viability, T/C [49] of 93.8%, a viability, T/C [50] of 104% and a viability, T/C [51] of 100%. The viability, T/C [52] was 103%, the viability, T/C [53] was 94.8% and the viability, T/C [54] was 90.7%. It also gave a viability, T/C [55] of 95.3%, a viability, T/C [56] of 92.2% and a viability, T/C [57] of 101%. The viability, T/C [58] was 91%, the viability, T/C [59] was 82.6% and the viability, T/C [60] was 88.8%. The viability, T/C [61] was 90.4%, the viability, T/C [62] was 102% and the viability, T/C [63] was 115%. For the same molecule, the viability, T/C [64] was 98.2% and the viability, T/C [65] was 78.2%.
`Nc1ccn(C2OC(CO)C(O)C2(F)F)c(=O)n1` (configuration not stated) + NC1CC1c1ccc(-c2cccc(O)c2)cc1 showed an IC50 [1] of over 300 nM, an IC50 [2] of over 300 nM and an IC50 [3] of over 300 nM. The IC50 [4] was over 300 nM, the IC50 [5] was over 300 nM and the viability, T/C [6] was 119%. For the same molecule, the viability, T/C [7] was 105%, the viability, T/C [8] was 97.4% and the viability, T/C [9] was 65.2%. The viability, T/C [10] was 68.9%, the viability, T/C [11] was 62.6% and the viability, T/C [12] was 106%. For the same molecule, the viability, T/C [13] was 107%, the viability, T/C [14] was 79.7% and the viability, T/C [15] was 66.8%. For the same molecule, the viability, T/C [16] was 67.3%, the viability, T/C [17] was 67.7% and the viability, T/C [18] was 108%. The viability, T/C [19] was 108%, the viability, T/C [20] was 75.6% and the viability, T/C [21] was 68.7%. For the same molecule, the viability, T/C [22] was 61.6%, the viability, T/C [23] was 71.2% and the viability, T/C [24] was 117%. The viability, T/C [25] was 104%, the viability, T/C [26] was 96.4% and the viability, T/C [27] was 76.2%. The viability, T/C [28] was 67.2%, the viability, T/C [29] was 72% and the viability, T/C [30] was 111%. For the same molecule, the viability, T/C [31] was 98.2%, the viability, T/C [32] was 91.3% and the viability, T/C [33] was 71.9%. It also gave a viability, T/C [34] of 72.5% and a viability, T/C [35] of 69.3%.
Work on `CC(C)CC(NC(=O)C(Cc1ccccc1)NC(=O)c1cnccn1)B(O)O` (configuration not stated) + NC1CCC(NC2CC2c2ccccc2)CC1 yielded an IC50 [1] of 0.529 nM, an IC50 [2] of 0.555 nM and an IC50 [3] of 0.572 nM. It also gave an IC50 [4] of 0.508 nM, an IC50 [5] of 0.511 nM and a viability, T/C [36] of 84.1%. For the same molecule, the viability, T/C [37] was 7.65%, the viability, T/C [38] was 4.44% and the viability, T/C [39] was 3.35%. It also gave a viability, T/C [40] of 1.92%, a viability, T/C [41] of 1.52% and a viability, T/C [42] of 87.9%. The viability, T/C [43] was 10.3%, the viability, T/C [44] was 3.34% and the viability, T/C [45] was 2.71%. The viability, T/C [46] was 2.22%, the viability, T/C [47] was 0.68% and the viability, T/C [48] was 95.9%. The viability, T/C [49] was 6.67%, the viability, T/C [50] was 3.82% and the viability, T/C [51] was 2.43%. The viability, T/C [52] was 2.03%, the viability, T/C [53] was 0.58% and the viability, T/C [54] was 80.8%. It also gave a viability, T/C [55] of 5.93%, a viability, T/C [56] of 3.18% and a viability, T/C [57] of 2.05%. The viability, T/C [58] was 2.04%, the viability, T/C [59] was 0.46% and the viability, T/C [60] was 82.5%. For the same molecule, the viability, T/C [61] was 4.35%, the viability, T/C [62] was 2.41% and the viability, T/C [63] was 1.45%. The viability, T/C [64] was 0.95% and the viability, T/C [65] was 0.47%.
With `CC(C)CC(NC(=O)C(Cc1ccccc1)NC(=O)c1cnccn1)B(O)O` (configuration not stated) the viability, T/C (compound 0.000316 µM) was 86.3% and 68.7%, the viability, T/C (compound 0.001 µM) was 5.76% and 3.52% and the viability, T/C (compound 0.00316 µM) was 4.42% and 2.33%. For the same molecule, the viability, T/C (compound 0.01 µM) was 2.79% and 2.47%, the viability, T/C (compound 0.0316 µM) was 2.25% and 1.91% and the viability, T/C (compound 0.1 µM) was 0.92% and 0.81%. The IC50 (curve of compound) was 0.531 nM and 0.44 nM.
